Measurements from patent US20100298285A1, “Biclycloheteroaryl Compounds as P2x7 Modulators and Uses Thereof” (priority 2006, published 2010).

System: IL-1β release, THP-1 cells
Experiment: IL-1β release assay in differentiated THP-1 cells stimulated with BzATP (Example 9)
Assay type: cell-based
Settings: Homo sapiens; for inhibition at 0.3 µM: 0.3 μM compound ("+" symbols); for inhibition at 0.3 µM / inhibition at 0.1 µM: differentiated THP-1 cells, 250 uM BzATP, read-out: IL-1β% Inhib. @ 0.3 or 0.1 μM; for IC50: THP-1 cells, BzATP 250 uM, four parameter logistic fit; for inhibition at 0.1 µM: 0.1 μM compound ("*" symbols)
Protocol: THP-1 cells (ATCC Cat # 285-IF-100) are plated in 96 well plates at a concentration of 200,000 cells per well and allowed to differentiate in RPMI-1640 media (ATCC Cat # 30-2001) containing 10% FBS, 100 IU/mL penicillin, 100 ug/mL streptomycin, 100 ng/mL LPS and 100 ng/mL IFN-γ for 16 hours. Following differentiation, the cells are treated for an additional 2 hours in RPMI-1640 media containing 100 IU/mL penicillin, 100 ug/mL streptomycin and fresh LPS at 100 ng/mL. The cells are then pretreated for 30 minutes with the compound of interest at the appropriate concentration in RPMI media containing 100 IU/mL penicillin, 100 ug/mL streptomycin. Following the pretreatment 2′,3′-O-(4-benzoylbenzoyl)-adenosine 5′-triphosphate (Sigma Aldrich Cat # B6396) is added to a final concentration of 250 uM and the cells are incubated for an additional 45 minutes. 30 uL of cell supernatant is then collected and IL-1β levels determined via ELISA (R&D systems Cat. # HSLB50) according to manufacturer's recommendations using the Tecan Safire plate reader. Background adjusted IL-1β levels of drug treated and non-treated cells are used to calculate the percent inhibition.
The following compounds have been or can be prepared according to the synthetic methods described above. For the purpose of Table 1 below, activity of each compound, which can be determined using the IL-1β assay method described in Example 9, is expressed as follows: […]
The compounds set forth in Table 1 were tested for activity in a cellular model as described herein. Specifically, cells were pretreated with differing amounts of the compound under test and released IL-1β determined as in Example 9, above. Measurements were made and IC50 values, presented in Table 2, below, were determined by fitting the data to a four parameter logistic equation using GraphPad Prism software (GraphPad Software, Inc). The equation may be expressed by the following formula:
Y=Bottom+(Top−Bottom)/(1+10̂((Log EC50−X)*HillSlope))
Where X is the logarithm of concentration, Y is the response and Y starts at Bottom and goes to Top with a sigmoid shape.

| Structure (SMILES) | inhibition at 0.3 µM | IC50 | inhibition at 0.1 µM |
| --- | --- | --- | --- |
| O=C(Cc1ccc(C(F)(F)F)c(F)c1)Nc1cccc2c1CCN(CC(O)CCl)C2 (centres unmarked) [Compound 3057, N-[2-(3-Chloro-2-hydroxy-propyl)-1,2,3,4-tetrahydro-isoquinolin-5-yl]-2-(3-fluoro-4-trifluoromethyl-phenyl)-acetamide] | 26 to 50% | 428 nM | – |
| O=C(Cc1ccc(C(F)(F)F)c(F)c1)Nc1cccc2c1CCN(C(=O)C1CC1)C2 [Compound 3041] | 0 to 25% | 495 nM | – |
| O=C(Cc1ccc(C(F)(F)F)c(F)c1)Nc1c(Cl)ccc2c1CCN(C(=O)c1ccc(C(F)(F)F)nc1)C2 [Compound 3132] | 0 to 25% | – | – |
| O=C(Cc1cccc(C(F)(F)F)c1F)Nc1c(Cl)ccc2c1CCN(C(=O)c1ccccc1)C2 [Compound 3137] | 0 to 25% | – | – |
| COc1ccc2c(c1NC(=O)Cc1ccc(C(F)(F)F)c(F)c1)CCN(C(=O)C(C)(C)C)C2 [Compound 3474, N-[2-(2,2-Dimethyl-propionyl)-6-methoxy-1,2,3,4-tetrahydro-isoquinolin-5-yl]-2-(3-fluoro-4-trifluoromethyl-phenyl)-acetamide] | – | 201 nM | – |
| O=C(Cc1ccc(C(F)(F)F)c(F)c1)Nc1cccc2c1CCN(C(=O)C1CCOCC1)C2 [Compound 3038] | 0 to 25% | 430 nM | – |
| CCCCS(=O)(=O)N1CCc2c(ccc(C)c2NC(=O)Cc2ccc(C(F)(F)F)c(F)c2)C1 [Compound 3448] | – | 65.4 nM | – |
| O=C(Cc1cccc(C(F)(F)F)c1F)Nc1c(Cl)ccc2c1CCN(C(=O)c1ccc(F)cc1F)C2 [Compound 3175] | 0 to 25% | – | – |
| CC(=O)N1CCc2c(ccc(C)c2NC(=O)Cc2ccc(C(F)(F)F)c(F)c2)C1 [Compound 3201] | – | 175 nM | – |
| Cc1ccc(C(=O)N2CCc3c(ccc(Cl)c3NC(=O)Cc3cccc(C(F)(F)F)c3F)C2)cc1 [Compound 3183] | 0 to 25% | – | – |
| O=C(Cc1cccc(C(F)(F)F)c1F)Nc1c(Cl)ccc2c1CCN(C(=O)COc1ccccc1)C2 [Compound 3152] | 0 to 25% | – | – |
| C[C@H](NC(=O)OC(C)(C)C)C(=O)N1CCc2c(cccc2NC(=O)Cc2ccc(C(F)(F)F)c(F)c2)C1 [Compound 3048] | 0 to 25% | 473 nM | – |
| Cc1ccc2c(c1NC(=O)Cc1ccc(C(F)(F)F)c(F)c1)CCN(C(=O)C(C)(C)O)C2 [Compound 3470] | – | 32.2 nM | – |
| O=C(Cc1ccc(C(F)(F)F)cc1)Nc1c(Cl)ccc2c1CCN(S(=O)(=O)c1cc(Cl)ccc1F)C2 [Compound 3018] | – | – | 0 to 25% |
| O=C(Cc1cccc(C(F)(F)F)c1F)Nc1c(Cl)ccc2c1CCN(C(=O)c1ccncc1)C2 [Compound 3190] | 0 to 25% | – | – |
| O=C(Cc1ccc(C(F)(F)F)c(F)c1)Nc1c(Cl)ccc2c1CCN(C(=O)C1COc3ccccc3O1)C2 (centres unmarked) [Compound 3110] | 0 to 25% | – | – |
| O=C(Cc1cccc(C(F)(F)F)c1F)Nc1c(Cl)ccc2c1CCN(C(=O)c1cccc3ccccc13)C2 [Compound 3185] | 0 to 25% | – | – |
| O=C(Cc1ccc(C(F)(F)F)cc1)Nc1c(Cl)ccc2c1CCN(S(=O)(=O)c1ccc(Cl)cc1F)C2 [Compound 3016] | – | – | 0 to 25% |
| CC(C)CC(=O)N1CCc2c(ccc(Cl)c2NC(=O)Cc2cccc(C(F)(F)F)c2F)C1 [Compound 3158] | 0 to 25% | – | – |
| COc1ccc2c(c1NC(=O)Cc1ccc(C(F)(F)F)c(F)c1)CCN(C(=O)C1(O)CC1)C2 [Compound 3476, 2-(3-Fluoro-4-trifluoromethyl-phenyl)-N-[2-(1-hydroxy-cyclopropanecarbonyl)-6-methoxy-1,2,3,4-tetrahydro-isoquinolin-5-yl]-acetamide] | – | 325 nM | – |
| N#Cc1ccccc1S(=O)(=O)N1CCc2c(ccc(Cl)c2NC(=O)Cc2ccc(C(F)(F)F)cc2)C1 [Compound 3027] | – | – | 0 to 25% |
| Cc1ccc2c(c1NC(=O)Cc1ccc(C(F)(F)F)c(F)c1)CCN(S(=O)(=O)C(C)C)C2 [Compound 3414] | – | 83 nM | – |
| CCCc1ccc(C(=O)N2CCc3c(ccc(Cl)c3NC(=O)Cc3cccc(C(F)(F)F)c3F)C2)cc1 [Compound 3146] | 26 to 50% | – | – |
| Cc1ccc(S(=O)(=O)N2CCc3c(ccc(Cl)c3NC(=O)Cc3ccc(C(F)(F)F)cc3)C2)c(C)c1 [Compound 3026] | – | – | 0 to 25% |

| Structure (SMILES) | inhibition at 0.3 µM | IC50 | inhibition at 0.1 µM |
| --- | --- | --- | --- |
| O=C(Cc1cccc(C(F)(F)F)c1F)Nc1c(Cl)ccc2c1CCN(C(=O)C1CC1)C2 [Compound 3165] | 0 to 25% | – | – |
| COc1ccccc1C(=O)N1CCc2c(ccc(Cl)c2NC(=O)Cc2cccc(C(F)(F)F)c2F)C1 [Compound 3184] | 0 to 25% | – | – |
| N[C@@H](Cc1ccccc1)C(=O)N1CCc2c(cccc2NC(=O)Cc2ccc(C(F)(F)F)c(F)c2)C1 [Compound 3056, N-[2-((S)-2-Amino-3-phenyl-propionyl)-1,2,3,4-tetrahydro-isoquinolin-5-yl]-2-(3-fluoro-4-trifluoromethyl-phenyl)-acetamide] | ≥ 76% | 56.3 nM | – |
| O=C(Cc1ccc(C(F)(F)F)c(F)c1)Nc1c(Cl)ccc2c1CCN(C(=O)c1cccc(Cl)c1Cl)C2 [Compound 3115] | 0 to 25% | – | – |
| O=C(Cc1ccc(C(F)(F)F)cc1)Nc1c(Cl)ccc2c1CCN(S(=O)(=O)c1cccc(C(F)(F)F)c1)C2 [Compound 3032] | – | – | 0 to 25% |
| CCCC(=O)N1CCc2c(ccc(Cl)c2NC(=O)Cc2ccc(C(F)(F)F)c(F)c2)C1 [Compound 3123] | 0 to 25% | – | – |
| O=C(Cc1ccc(C(F)(F)F)c(F)c1)Nc1cccc2c1CCN(C(=O)CC1CCCCCC1)C2 [Compound 3043] | ≥ 76% | 82.5 nM | – |
| CC(C)(C)OC(=O)NC(Cc1ccccc1)C(=O)N1CCc2c(cccc2NC(=O)Cc2ccc(C(F)(F)F)c(F)c2)C1 (centres unmarked) [Compound 3045] | 26 to 50% | 385 nM | – |
| Cc1ccc2c(c1NC(=O)Cc1ccc(C(F)(F)F)c(F)c1)CCN(C(=O)C1(O)CC1)C2 [Compound 3468] | – | 69.8 nM | – |
| O=C(Cc1ccc(C(F)(F)F)c(F)c1)Nc1c(Cl)ccc2c1CCN(C(=O)CC1CCCC1)C2 [Compound 3103] | 51 to 75% | 172 nM | – |
| Cc1ncccc1C(=O)N1CCc2c(cccc2NC(=O)Cc2ccc(C(F)(F)F)c(F)c2)C1 [Compound 3044] | 0 to 25% | > 1000 nM | – |
| O=C(Cc1ccc(C(F)(F)F)c(F)c1)Nc1c(Cl)ccc2c1CCN(S(=O)(=O)c1ccccc1Cl)C2 [Compound 3287] | – | 60.7 nM | – |
| Cc1ccccc1S(=O)(=O)N1CCc2c(ccc(Cl)c2NC(=O)Cc2ccc(C(F)(F)F)cc2)C1 [Compound 3023] | – | – | 0 to 25% |
| CCC(O)CN1CCc2c(cccc2NC(=O)Cc2ccc(C(F)(F)F)c(F)c2)C1 (centres unmarked) [Compound 3058, 2-(3-Fluoro-4-trifluoromethyl-phenyl)-N-[2-(2-hydroxy-butyl)-1,2,3,4-tetrahydro-isoquinolin-5-yl]-acetamide] | 26 to 50% | 338 nM | – |
| O=C(Cc1cccc(C(F)(F)F)c1F)Nc1c(Cl)ccc2c1CCN(C(=O)C1CCCC1)C2 [Compound 3144] | 0 to 25% | – | – |
| O=C(Cc1ccc(C(F)(F)F)c(F)c1)Nc1c(Cl)ccc2c1CCN(C(=O)c1ccc(Cl)c(Cl)c1)C2 [Compound 3086] | 0 to 25% | – | – |
| O=C(Cc1ccc(C(F)(F)F)c(F)c1)Nc1cccc2c1CCN(C(=O)C1COc3ccccc3C1)C2 (centres unmarked) [Compound 3040] | ≥ 76% | 64.2 nM | – |
| Cc1ccc(F)cc1S(=O)(=O)N1CCc2c(ccc(Cl)c2NC(=O)Cc2ccc(C(F)(F)F)cc2)C1 [Compound 3011] | – | – | 0 to 25% |
| O=C(Cc1ccc(C(F)(F)F)c(F)c1)Nc1cccc2c1CCN(CC(O)c1ccc(F)cc1)C2 (centres unmarked) [Compound 3065, N-{2-[2-(4-Fluoro-phenyl)-2-hydroxy-ethyl]-1,2,3,4-tetrahydro-isoquinolin-5-yl}-2-(3-fluoro-4-trifluoromethyl-phenyl)-acetamide] | 51 to 75% | 206 nM | – |
| CC(C)S(=O)(=O)N1CCc2c(ccc(Cl)c2NC(=O)Cc2ccc(C(F)(F)F)c(F)c2)C1 [Compound 3304] | – | 71.1 nM | – |
| Cc1ccc(C)c(S(=O)(=O)N2CCc3c(ccc(Cl)c3NC(=O)Cc3ccc(C(F)(F)F)cc3)C2)c1 [Compound 3025] | ≥ 76% | 84 nM | – |
| O=C(Cc1ccc(C(F)(F)F)c(F)c1)Nc1c(Cl)ccc2c1CCN(C(=O)c1ccc(-c3ccccc3)cc1)C2 [Compound 3077] | 0 to 25% | – | – |
| CCCC(O)CN1CCc2c(cccc2NC(=O)Cc2ccc(C(F)(F)F)c(F)c2)C1 (centres unmarked) [Compound 3063] | 26 to 50% | 673 nM | – |
| O=C(Cc1ccc(C(F)(F)F)cc1)Nc1c(Cl)ccc2c1CCN(S(=O)(=O)c1cccc(Cl)c1)C2 [Compound 3012] | – | – | 0 to 25% |
